The nature of data set [1]: UV absorption (UV λmax and εmax) in solution. Type of data set: physicochemical. The source says:
There follow some examples where the UV λmax and εmax have been measured according to general methods known for the person skilled in the art by way of non-restrictive illustration of the present invention.

Values joined by “and” are separate entries in the source; they are usually repeats but may differ in a detail not shown here. Equal values may be shown once. Where only a bound is given, the exact number is not on record here.

Regarding `CCCCOC(=O)c1ccc(NC2=NC3=NC(Nc4ccc(C(=O)OCCCC)cc4)=NC4=NC(c5cn(C)c6ccccc56)=NC(=N2)N34)cc1` [Example 18], in data set [1] (DMSO), the “UV λmax” value is recorded as 337 nm and the εmax was 65000 M⁻¹ cm⁻¹.

In the case of `Cc1cc(N)c(NC2=NC3=NC(Nc4cc(C)c(C)cc4N)=NC4=NC(Nc5cc(C)c(C)cc5N)=NC(=N2)N34)cc1C` [Example 48, 2,5,8-tris-(2-amino-4,5-dimethylphenylamino)-1,3,4,6,7,9,9b-heptaazaphenalene], in data set [1] (DMSO), the “UV λmax” value was determined as 270 nm and the εmax was 44000 M⁻¹ cm⁻¹.

One may read the melting point as the temperature, or range, at which the solid turns liquid. The compound `COc1cccc(NC2=NC3=NC(Nc4cccc(OC)c4)=NC4=NC(Nc5cccc(OC)c5)=NC(=N2)N34)c1` [Example 20, 2,5,8-tris-(3-methoxyphenylamino)-1,3,4,6,7,9,9b-heptaazaphenalene] displayed a melting point of over 275 °C. In data set [1] (MeOH), the “UV λmax” value came to 312 nm and the εmax was 62000 M⁻¹ cm⁻¹.

With `c1cc2cc(NC3=NC4=NC(Nc5ccc6[nH]ccc6c5)=NC5=NC(Nc6ccc7[nH]ccc7c6)=NC(=N3)N45)ccc2[nH]1` [Example 46, 2,5,8-tris-(1H-indol-5-ylamino)-1,3,4,6,7,9,9b-heptaazaphenalene], in data set [1] (DMSO), the “UV λmax” value came out at 331 nm and the εmax is 46000 M⁻¹ cm⁻¹.

In the case of `c1ccc(-c2ccc(NC3=NC4=NC(Nc5ccc(-c6ccccc6)cc5)=NC5=NC(Nc6ccc(-c7ccccc7)cc6)=NC(=N3)N45)cc2)cc1`, the melting point was over 310 °C.

Turning to `c1ccc2cc(NC3=NC4=NC(Nc5ccc6ccccc6c5)=NC5=NC(Nc6ccc7ccccc7c6)=NC(=N3)N45)ccc2c1` [Example 17, 2,5,8-tris-(naphthalen-2-ylamino)-1,3,4,6,7,9,9b-heptaazaphenalene], the melting point was over 275 °C. In addition, in data set [1] (DMSO), the “UV λmax” value was 279 nm and 331 nm; the εmax is 89000 M⁻¹ cm⁻¹ and 75000 M⁻¹ cm⁻¹.

On to `Cc1ccc(C2=NC3=NC(c4ccc(C)cc4)=NC4=NC(c5ccc(C)cc5)=NC(=N2)N34)cc1` [Example 25, 2,5,8-tris-(4-methylphenyl)-1,3,4,6,7,9,9b-heptaazaphenalene], for which, in data set [1] (DMSO), the “UV λmax” value is recorded as 327 nm and the εmax was determined as 86000 M⁻¹ cm⁻¹.

As to `CCCCC(CC)COC(=O)/C=C/c1cccc(NC2=NC3=NC(Nc4cccc(/C=C/C(=O)OCC(CC)CCCC)c4)=NC4=NC(Nc5cccc(/C=C/C(=O)OCC(CC)CCCC)c5)=NC(=N2)N34)c1` (stereo not drawn) [Example 33, 2,5,8-tris-(3-((E)-3-(2-ethylhexyloxy)-3-oxoprop-1-enyl)phenylamino)-1,3,4,6,7,9,9b-heptaazafenaleno], the melting point fell in the range of 206 to 210 °C. Also, in data set [1] (DMSO), the “UV λmax” value was found to be 290 nm and the εmax was 126000 M⁻¹ cm⁻¹.

The compound `CCCCCCC(CCCC)COC(=O)c1ccc(NC2=NC3=NC(Nc4ccc(C(=O)OCC(CCCC)CCCCCC)cc4)=NC4=NC(Nc5ccc(C(=O)OCC(CCCC)CCCCCC)cc5)=NC(=N2)N34)cc1` (stereo not drawn) [Example 36, 2,5,8-tris-(4-(2-butyloctyloxycarbonyl)phenylamino)-1,3,4,6,7,9,9b-heptaazaphenalene] registered a melting point of 215 to 222 °C. In addition, in data set [1] (CHCl3), the “UV λmax” value is on record as 326 nm and the εmax came out at 119000 M⁻¹ cm⁻¹.

`c1ccc2[nH]c(-c3ccc(NC4=NC5=NC(Nc6ccc(-c7nc8ccccc8[nH]7)cc6)=NC6=NC(Nc7ccc(-c8nc9ccccc9[nH]8)cc7)=NC(=N4)N56)cc3)nc2c1` [Example 8, 2,5,8-tris-(4-(1H-benzo[d]imidazol-2-yl)phenylamino)-1,3,4,6,7,9,9b-heptaazaphenalene] came in with a melting point of over 275 °C.

As to `c1ccc(-c2ccc(OC3=NC4=NC(Oc5ccc(-c6ccccc6)cc5)=NC5=NC(Oc6ccc(-c7ccccc7)cc6)=NC(=N3)N45)cc2)cc1` [Example 19, 2,5,8-tris-(biphenyl-4-yloxy)-1,3,4,6,7,9,9b-heptaazaphenalene], in data set [1] (DMSO), the “UV λmax” value was found to be 262 nm and the εmax amounted to 81000 M⁻¹ cm⁻¹.

With `CCCCC(CC)CNC1=NC2=NC(NCC(CC)CCCC)=NC3=NC(NCC(CC)CCCC)=NC(=N1)N23` (stereo not drawn) [Example 29, 2,5,8-tris-(2-ethylhexylamino)-1,3,4,6,7,9,9b-heptaazaphenalene], in data set [1] (DMSO), the “UV λmax” value came out at 265 nm and the εmax came out at 92000 M⁻¹ cm⁻¹.

For the compound `COC(=O)c1ccc(-c2ccc(NC3=NC4=NC(Nc5ccc(-c6ccc(C(=O)OC)cc6)cc5)=NC5=NC(Nc6ccc(-c7ccc(C(=O)OC)cc7)cc6)=NC(=N3)N45)cc2)cc1` [Example 23, 2,5,8-tris-(methoxycarbonyl-4′-biphenyl-4-ylamino)-1,3,4,6,7,9,9b-heptaazaphenalene], in data set [1] (DMSO), the “UV λmax” value worked out at 346 nm and the εmax amounted to 99000 M⁻¹ cm⁻¹.

Turning to `C(=C\c1cccc(NC2=NC3=NC(Nc4cccc(/C=C/c5ccccc5)c4)=NC4=NC(Nc5cccc(/C=C/c6ccccc6)c5)=NC(=N2)N34)c1)/c1ccccc1` [Example 37, 2,5,8-tris-((3-(E)-styrylphenyl)amino)-1,3,4,6,7,9,9b-heptaazaphenalene], in data set [1] (DMSO), the “UV λmax” value was determined as 316 nm and the εmax was found to be 167000 M⁻¹ cm⁻¹.

As to `CCCCCCCCCCCCCCCCCCOC(=O)c1ccc(NC2=NC3=NC(Nc4ccc(C(=O)OCCCCCCCCCCCCCCCCCC)cc4)=NC4=NC(Nc5ccc(C(=O)OCCCCCCCCCCCCCCCCCC)cc5)=NC(=N2)N34)cc1` [Example 40, 2,5,8-tris-(4-(octadecyloxycarbonyl)phenylamino)-1,3,4,6,7,9,9b-heptaazaphenalene], in data set [1] (DMSO), the “UV λmax” value is 324 nm and the εmax turned out to be 117000 M⁻¹ cm⁻¹.

On to `Cc1cc2c(n1-c1ccc(NC3=NC4=NC(Nc5ccc(-n6c(C)cc7c6CC(C)(C)CC7=O)cc5)=NC5=NC(Nc6ccc(-n7c(C)cc8c7CC(C)(C)CC8=O)cc6)=NC(=N3)N45)cc1)CC(C)(C)CC2=O` [Example 4, 2,5,8-tris-(4-(4,5,6,7-tetrahydro-2,6,6-trimethyl-4-oxoindol-1-yl)phenylamine)-1,3,4,6,7,9,9b-heptaazaphenalene], for which, in data set [1] (EtOH), the “UV λmax” value amounted to 314 nm and the εmax was 103000 M⁻¹ cm⁻¹.

On to `CCCCCCCCCCCCOC(=O)c1ccc(NC2=NC3=NC(Nc4ccc(C(=O)OCCCCCCCCCCCC)cc4)=NC4=NC(Nc5ccc(C(=O)OCCCCCCCCCCCC)cc5)=NC(=N2)N34)cc1` [Example 44, 2,5,8-tris-(4-(dodecyloxycarbonyl)phenylamino)-1,3,4,6,7,9,9b-heptaazaphenalene], for which, in data set [1] (DMSO), the “UV λmax” value amounted to 326 nm and the εmax amounted to 87000 M⁻¹ cm⁻¹.

Take `c1ccc(-c2ccc(NC3=NC4=NC(Nc5ccc(-c6ccccc6)cc5)=NC5=NC(Nc6ccc(-c7ccccc7)cc6)=NC(=N3)N45)cc2)cc1` [Example 6, 2,5,8-tris-(biphenyl-4-ylamino)-1,3,4,6,7,9,9b-heptaazaphenalene]: in data set [1] (DMSO), the “UV λmax” value is 333 nm and the εmax was found to be 103000 M⁻¹ cm⁻¹.

Turning to `c1ccn2cc(-c3ccc(NC4=NC5=NC(Nc6ccc(-c7cn8ccccc8n7)cc6)=NC6=NC(Nc7ccc(-c8cn9ccccc9n8)cc7)=NC(=N4)N56)cc3)nc2c1` [Example 3, 2,5,8-tris-(4-(imidazo[1,2-a]pyridin-2-yl)-phenylamino)-1,3,4,6,7,9,9b-heptaazaphenalene], in data set [1] (DMSO), the “UV λmax” value is reported as 353 nm and the εmax is 75000 M⁻¹ cm⁻¹.

Regarding `CCCCCCCCC(CCCCCC)COC(=O)c1ccc(NC2=NC3=NC(Nc4ccc(C(=O)OCC(CCCCCC)CCCCCCCC)cc4)=NC4=NC(Nc5ccc(C(=O)OCC(CCCCCC)CCCCCCCC)cc5)=NC(=N2)N34)cc1` (stereo not drawn) [Example 38, 2,5,8-tris-(4-(^2-hexyldecyloxycarbonyl)phenylamino)-1,3,4,6,7,9,9b-heptaazaphenalene], in data set [1] (DMSO), the “UV λmax” value was determined as 324 nm and the εmax came to 121000 M⁻¹ cm⁻¹.

In the case of `CCCCC(CC)COC(=O)/C=C/c1ccc(NC2=NC3=NC(Nc4ccc(/C=C/C(=O)OCC(CC)CCCC)cc4)=NC4=NC(Nc5cccc(/C=C/C(=O)OCC(CC)CCCC)c5)=NC(=N2)N34)cc1` (stereo not drawn) [Example 34, 2-(3-((E)-3-(2-ethylhexyloxy)-3-oxoprop-1-enyl)phenylamino)-5,8-bis-(4-((E) -3-(2-ethylhexyloxy)-3-oxoprop-1-enyl)phenylamino)-1,3,4,6,7,9,9b-heptaazaphenalene], in data set [1] (DMSO), the “UV λmax” value was 288 nm and 354 nm; the εmax was 66000 M⁻¹ cm⁻¹ and 113000 M⁻¹ cm⁻¹.

For the compound `O=[N+]([O-])c1cccc(NC2=NC3=NC(Nc4cccc([N+](=O)[O-])c4)=NC4=NC(Nc5cccc([N+](=O)[O-])c5)=NC(=N2)N34)c1` [Example 35, 2,5,8-tris-(3-nitrophenylamino)-1,3,4,6,7,9,9b-heptaazaphenalene], in data set [1] (DMSO), the “UV λmax” value is on record as 308 nm and the εmax was determined as 113000 M⁻¹ cm⁻¹.

Consider `CC12CCC(C1)C(C)(C)C2OC(=O)c1ccc(NC2=NC3=NC(Nc4ccc(C(=O)OC5C6(C)CCC(C6)C5(C)C)cc4)=NC4=NC(Nc5ccc(C(=O)OC6C7(C)CCC(C7)C6(C)C)cc5)=NC(=N2)N34)cc1` (stereo not drawn) [Example 45], for which, in data set [1] (DMSO), the “UV λmax” value was 330 nm and the εmax worked out at 150000 M⁻¹ cm⁻¹.

`c1ccc(Nc2ccc(NC3=NC4=NC(Nc5ccc(Nc6ccccc6)cc5)=NC5=NC(Nc6ccc(Nc7ccccc7)cc6)=NC(=N3)N45)cc2)cc1` [Example 27, 2,5,8-tris-(4-(phenylamino)phenylamino)-1,3,4,6,7,9,9b-heptaazaphenalene]: in data set [1] (DMSO), the “UV λmax” value turned out to be 360 nm and the εmax came out at 60000 M⁻¹ cm⁻¹.

Regarding `COc1ccc(NC2=NC3=NC(Nc4ccc(OC)cc4)=NC4=NC(Nc5ccc(OC)cc5)=NC(=N2)N34)cc1` [Example 21, 2,5,8-tris-(4-methoxyphenylamino)-1,3,4,6,7,9,9b-heptaazaphenalene], in data set [1] (DMSO), the “UV λmax” value is 324 nm and the εmax was found to be 59000 M⁻¹ cm⁻¹.

Turning to `c1ccc2[nH]c(-c3ccc(NC4=NC5=NC(Nc6ccc(-c7nc8ccccc8[nH]7)cc6)=NC6=NC(Nc7ccc(-c8nc9ccccc9[nH]8)cc7)=NC(=N4)N56)cc3)nc2c1` [Example 7, 2,5,8-tris-(4-(1H-benzo[d]imidazol-2-yl)phenylamino)-1,3,4,6,7,9,9b-heptaazaphenalene], in data set [1] (CHCl3-MeOH), the “UV λmax” value turned out to be 358 nm and the εmax turned out to be 107000 M⁻¹ cm⁻¹.

Source of the values: patent publication US20080193398A1, “Derivatives of Heptaazaphenalene, Methods for Obtaining Them, and Their Use as Protecting Agents Against Uv Radiation” (ISDIN, S.A., priority 2005, published 2008).
